Among the test systems are UACC-62; KM12; 786-0; HCT-15; NCI-H23; IGROV-1; OVCAR-3; SF-295; SR; OVCAR-8; MDA-MB-231; A549; T47D; LOX IMVI; PC-3; MDA-N; EKVX; SK-OV-3; SN12C; OVCAR-4.
Holding throughout (test): inhibition of tumour cell growth, NCI panel, 48 h

SMILES strings stand for the structures.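 Five concentrations, 48 hours, 96-well plates. GI50: concentration for 50% inhibition of growth.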 The source made the active and inactive calls. Rule as the data show it: active = GI50 up to about 1.1 µM and inactive = higher.

Regarding `O=c1oc2ccccc2cc1-c1cn2c(n1)sc1ccccc12`, the GI50 was > 100 µM (inactive) with UACC-62; 93.5 µM (inactive) in the experiment with KM12; > 100 µM (inactive) in the experiment with 786-0; over 100 µM in the experiment with HCT-15; > 100 µM (inactive) in the experiment on NCI-H23; > 100 µM (inactive) in the experiment on IGROV-1. The GI50 with OVCAR-3 is > 100 µM (inactive); in the experiment on SF-295 it was > 100 µM (inactive); with SR it was > 100 µM (inactive); with OVCAR-8, 83.9 µM (inactive); with MDA-MB-231, > 100 µM (inactive); in the experiment on A549 it was > 100 µM (inactive). The GI50 with T47D was > 100 µM (inactive); with LOX IMVI, > 100 µM (inactive); in the experiment on PC-3, > 100 µM (inactive); in the experiment with MDA-N, > 100 µM (inactive); with EKVX it was 2.33 µM (inactive); with SK-OV-3 it was > 100 µM (inactive). In addition, in the experiment with SN12C, the GI50 is > 100 µM (inactive).
Take `CC(=O)O[C@H]1CCc2c(cc(N)c3c2C(=O)C[C@]2(C)C([C@H](C)CCCC(C)C)CCC32C)C1(C)C` (some centres not stated): the GI50 in the experiment on UACC-62 was > 100 µM (inactive); in the experiment with KM12, > 100 µM (inactive); in the experiment on 786-0 it was > 100 µM (inactive); with HCT-15, over 100 µM; in the experiment with NCI-H23 it was 60.5 µM (inactive); with IGROV-1 it was > 100 µM (inactive). The GI50 was > 100 µM (inactive) in the experiment on OVCAR-3; > 100 µM (inactive) in the experiment on SF-295; 33.9 µM (inactive) with SR; 33.3 µM (inactive) with OVCAR-8; > 100 µM (inactive) in the experiment with MDA-MB-231; > 100 µM (inactive) in the experiment on A549. The GI50 is > 100 µM (inactive) in the experiment on T47D; 72.8 µM (inactive) in the experiment with PC-3; > 100 µM (inactive) with MDA-N; > 100 µM (inactive) in the experiment on EKVX; 92.7 µM (inactive) in the experiment on OVCAR-4; > 100 µM (inactive) with SK-OV-3. In addition, the GI50 with SN12C was > 100 µM (inactive).
On to `O=C1CN(c2cccc(C(F)(F)F)c2)C(=O)CN1NCNN1CC(=O)N(c2cccc(C(F)(F)F)c2)CC1=O`, for which the GI50 with KM12 is 36 µM (inactive); with 786-0, > 100 µM (inactive); in the experiment on HCT-15, over 100 µM; with IGROV-1 it was > 100 µM (inactive); in the experiment on SF-295, > 100 µM (inactive); with SR it was > 100 µM (inactive). Besides, the GI50 in the experiment with OVCAR-8, with MDA-MB-231, in the experiment with A549, in the experiment on T47D, in the experiment on PC-3 and with MDA-N was > 100 µM (inactive) throughout. In addition, the GI50 in the experiment with EKVX, in the experiment on SK-OV-3 and in the experiment on SN12C was > 100 µM (inactive) each time.
For the molecule `CCOC(=O)/C(=N\Nc1ccc(-n2c(C)nc3ccc(Br)cc3c2=O)cc1)C(C)=O`, the GI50 with UACC-62 was 46.9 µM (inactive); in the experiment on KM12 it was 59.6 µM (inactive); in the experiment on 786-0, 59.2 µM (inactive); with HCT-15 it was 64.4 µM; in the experiment with NCI-H23, 69.5 µM (inactive); in the experiment on IGROV-1 it was > 100 µM (inactive). Also, the GI50 in the experiment on OVCAR-3 is > 100 µM (inactive); in the experiment on SF-295, 48 µM (inactive); in the experiment on SR, 22.3 µM (inactive); in the experiment with OVCAR-8, 55.2 µM (inactive); in the experiment on MDA-MB-231 it was 31.9 µM (inactive); in the experiment with A549, 53.8 µM (inactive). For the same molecule, the GI50 was 33.1 µM (inactive) in the experiment with T47D; > 100 µM (inactive) in the experiment on LOX IMVI; 44.6 µM (inactive) in the experiment with PC-3; 71.1 µM (inactive) in the experiment with MDA-N; 72.1 µM (inactive) in the experiment on EKVX; > 100 µM (inactive) in the experiment with SK-OV-3. In the experiment with SN12C, the GI50 is > 100 µM (inactive).
As for `Cc1ccc2c(n1)NC(=O)C(Cc1ccccc1)(N=[N+]=[N-])C2=O` (configuration not stated), the GI50 in the experiment with UACC-62 was > 100 µM (inactive); with KM12, > 100 µM (inactive); in the experiment with 786-0, > 100 µM (inactive); with HCT-15, over 100 µM; with NCI-H23, > 100 µM (inactive); with IGROV-1, > 100 µM (inactive). Besides, the GI50 in the experiment on OVCAR-3, in the experiment with SF-295, in the experiment with SR, with OVCAR-8, in the experiment on MDA-MB-231 and with A549 was > 100 µM (inactive) each time. Moreover, the GI50 with T47D was 67 µM (inactive); in the experiment with PC-3, > 100 µM (inactive); with MDA-N it was > 100 µM (inactive); with OVCAR-4 it was > 100 µM (inactive); with SK-OV-3, > 100 µM (inactive); with SN12C, > 100 µM (inactive).
As to `CCCCCCCCCCCCNC(=O)NCC(OCC)OCC`, the GI50 is > 10 µM (inactive) in the experiment with UACC-62; > 10 µM (inactive) with KM12; > 10 µM (inactive) in the experiment with 786-0; over 10 µM in the experiment with HCT-15; > 10 µM (inactive) in the experiment with NCI-H23; > 10 µM (inactive) with IGROV-1. The GI50 with SF-295, with SR, with OVCAR-8, in the experiment on MDA-MB-231, in the experiment on A549 and in the experiment with T47D was > 10 µM (inactive) throughout. Moreover, the GI50 in the experiment with LOX IMVI, in the experiment with PC-3, with MDA-N, in the experiment on EKVX, in the experiment with OVCAR-4 and with SK-OV-3 was > 10 µM (inactive) each time. The GI50 in the experiment with SN12C was > 10 µM (inactive).
Turning to `S=C(N1CCN(c2ccc(Cl)c(Cl)c2)CC1)N1CCN(c2ccc(Cl)c(Cl)c2)CC1`, the GI50 in the experiment on UACC-62 is 15.5 µM (inactive); in the experiment on KM12, 14.1 µM (inactive); in the experiment with 786-0, 10.8 µM (inactive); in the experiment on HCT-15, 15.4 µM; in the experiment with NCI-H23, 15.3 µM (inactive); in the experiment on IGROV-1 it was 10.7 µM (inactive). Further, the GI50 in the experiment on OVCAR-3 is 13.5 µM (inactive); in the experiment with SF-295, 9.25 µM (inactive); in the experiment on SR, 1.36 µM (inactive); with OVCAR-8, 14.8 µM (inactive); in the experiment with MDA-MB-231, 9.08 µM (inactive); in the experiment on A549, 16.3 µM (inactive). Further, the GI50 with T47D was 7.94 µM (inactive); in the experiment with PC-3 it was 12.7 µM (inactive); in the experiment on MDA-N, 11.6 µM (inactive); with EKVX it was 3.38 µM (inactive); with OVCAR-4, 13.7 µM (inactive); with SK-OV-3, 12.5 µM (inactive).
As to `COc1cc2c(c(OC)c1OC)-c1ccc(SC)cc1[C@H](OC(=O)c1ccccc1)CC2`, the GI50 is 0.0753 µM (active) with UACC-62; 0.0488 µM (active) in the experiment with KM12; 0.106 µM (active) in the experiment with 786-0; 0.0667 µM in the experiment on HCT-15; 0.0935 µM (active) in the experiment with NCI-H23; 0.145 µM (active) in the experiment on IGROV-1. The GI50 in the experiment on OVCAR-3 was 0.199 µM (active); in the experiment on SF-295, 0.0809 µM (active); with SR, 0.0247 µM (active); in the experiment on OVCAR-8 it was 0.158 µM (active); with MDA-MB-231 it was 0.284 µM (active); in the experiment on A549 it was 0.123 µM (active). In addition, the GI50 in the experiment with T47D was 27.5 µM (inactive); in the experiment on LOX IMVI, 0.0743 µM (active); in the experiment with PC-3, 0.0673 µM (active); in the experiment with MDA-N, 0.0136 µM (active); in the experiment with EKVX, 0.155 µM (active); with SK-OV-3 it was 5.04 µM (inactive). The GI50 in the experiment with SN12C was 0.254 µM (active).
Turning to `O=c1[nH]nc(Cc2ccc(Cl)cc2)n1/N=C/c1ccco1`, the GI50 in the experiment on UACC-62 is 74 µM (inactive); with KM12 it was > 100 µM (inactive); with 786-0, 30.4 µM (inactive); in the experiment on HCT-15, over 100 µM; in the experiment with NCI-H23 it was 34.8 µM (inactive); in the experiment with OVCAR-3, > 100 µM (inactive). Further, the GI50 in the experiment with SF-295 is 46.6 µM (inactive); in the experiment with SR it was > 100 µM (inactive); with OVCAR-8, 66.5 µM (inactive); in the experiment on MDA-MB-231, 46.1 µM (inactive); with A549, > 100 µM (inactive); in the experiment on T47D, > 100 µM (inactive). The GI50 is > 100 µM (inactive) in the experiment with PC-3; > 100 µM (inactive) with MDA-N; > 100 µM (inactive) in the experiment on EKVX; > 100 µM (inactive) with OVCAR-4; 80.2 µM (inactive) with SK-OV-3; > 100 µM (inactive) in the experiment on SN12C.
As to `C[C@H]1ON2CCC[C@@H]2[C@@H]1C(=O)N1C2CC3CCC2(CS1(=O)=O)C3(C)C` (some centres not stated), the GI50 with UACC-62 was > 100 µM (inactive); in the experiment with KM12, > 100 µM (inactive); in the experiment on 786-0, > 100 µM (inactive); with HCT-15, over 100 µM; in the experiment with NCI-H23 it was > 100 µM (inactive); in the experiment with IGROV-1, > 100 µM (inactive). Also, the GI50 with OVCAR-3, with SF-295, in the experiment on OVCAR-8, in the experiment on MDA-MB-231, with A549 and with T47D was > 100 µM (inactive) throughout. Further, the GI50 in the experiment with LOX IMVI, in the experiment with PC-3, in the experiment on MDA-N, in the experiment on EKVX, in the experiment on OVCAR-4 and in the experiment on SK-OV-3 was > 100 µM (inactive) throughout. Also, in the experiment with SN12C, the GI50 was > 100 µM (inactive).
Take `Cc1ccc(S(=O)(=O)NNC2(NS(=O)(=O)c3ccc(Cl)cc3)C(Cl)=C(Cl)C(=O)c3ccccc32)cc1` (configuration not stated): the GI50 in the experiment on UACC-62 was 16.6 µM (inactive); in the experiment with KM12 it was 17.3 µM (inactive); with 786-0, 14.1 µM (inactive); in the experiment with HCT-15, 24.4 µM; with NCI-H23, 15 µM (inactive); in the experiment with IGROV-1, 14.7 µM (inactive). Further, the GI50 with OVCAR-3 was 16.4 µM (inactive); in the experiment on SF-295, 20.9 µM (inactive); with OVCAR-8, 21.6 µM (inactive); in the experiment with MDA-MB-231, 19 µM (inactive); in the experiment with A549, 16.9 µM (inactive); in the experiment with T47D, 28.3 µM (inactive). The GI50 was 23.5 µM (inactive) in the experiment on LOX IMVI; 16.7 µM (inactive) in the experiment with PC-3; 17.4 µM (inactive) in the experiment on MDA-N; 15.5 µM (inactive) in the experiment on EKVX; 16.1 µM (inactive) in the experiment with OVCAR-4; 16.9 µM (inactive) in the experiment on SK-OV-3. In addition, the GI50 with SN12C was 17 µM (inactive).

Source of the values: ChEMBL document CHEMBL1201862, “PubChem BioAssay data set” (2004).
